Results from PubChem BioAssay (NCI).
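Method: 48-hour compound exposure of cells in 96-well plates, five concentrations, linear interpolation of endpoints. At the TGI there is no net growth.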

Columns and labels:
Assay in all cases: NCI-60 cell line screen, 48 h
[1] = tested on: HCT-116 colon
[2] = tested on: T-47D breast
[3] = tested on: HL-60(TB) leukemia
[4] = tested on: NCI-H23 lung
[5] = tested on: NCI-H226 lung
[6] = tested on: SF-295 CNS
[7] = tested on: HCT-15 colon
[8] = tested on: KM12 colon
[9] = tested on: NCI/ADR-RES ovarian
[10] = tested on: MDA-MB-435
[11] = tested on: CAKI-1 renal
[12] = tested on: MDA-N
[13] = tested on: RPMI-8226 leukemia
[14] = tested on: 786-0 renal
[15] = tested on: SK-MEL-5 melanoma
[16] = tested on: HCC-2998 colon
[17] = tested on: M14 melanoma
[18] = tested on: UACC-62 melanoma
[19] = tested on: UACC-257 melanoma
[20] = tested on: OVCAR-8 ovarian
[21] = tested on: SK-MEL-2 melanoma
[22] = tested on: SNB-19 CNS
[23] = tested on: PC-3 prostate
[24] = tested on: UO-31 renal
[25] = tested on: SW-620 colon
[26] = tested on: IGROV1 ovarian
[27] = tested on: MALME-3M melanoma
[28] = tested on: K-562 leukemia
[29] = tested on: NCI-H522 lung
[30] = tested on: HS 578T breast
[31] = tested on: HOP-62 NSCLC
[32] = tested on: EKVX NSCLC
[33] = tested on: A549 NSCLC
[34] = tested on: ACHN renal
[35] = tested on: COLO 205 colon
[36] = tested on: RXF 393 renal
[37] = tested on: HT29 colon
[38] = tested on: OVCAR-5 ovarian
[39] = tested on: MOLT-4 leukemia
[40] = tested on: SK-OV-3 ovarian
[41] = tested on: LOX IMVI melanoma
[42] = tested on: SNB-75 CNS
[43] = tested on: NCI-H460 lung
[44] = tested on: SK-MEL-28 melanoma
[45] = tested on: OVCAR-3 ovarian
[46] = tested on: U251 CNS
[47] = tested on: SF-268 CNS
[48] = tested on: TK-10 renal
[49] = tested on: DU-145 prostate
[50] = tested on: BT-549 breast
[51] = tested on: OVCAR-4 ovarian
[52] = tested on: SN12C renal
[53] = tested on: MDA-MB-231 breast
[54] = tested on: CCRF-CEM leukemia
[55] = tested on: MCF7 breast
[56] = tested on: SF-539 CNS
[57] = tested on: A498 renal
[58] = tested on: HOP-92 NSCLC

Measured: TGI

C/C(=C/C(=O)Nn1c(Cc2ccccc2)n[nH]c1=O)C(=O)O
not listed: [57] | [58]
> 100 µM: all other assays above

CCSc1cc(=O)n(C)c(=O)n1C
not listed: [26] | [28]
> 100 µM: all other assays above

CC1OC(O[C@H]2C3C=CO[C@@H](OC4OC(CO)C(O)C(O)C4O)C3[C@@]3(COC(=O)/C=C/c4ccc(O)cc4)O[C@@H]23)C(O)C(O)C1O (stereo partly drawn)
not listed: [54] | [56]
> 100 µM: all other assays above
